Measured values as given in publication PMC3176174 (OncoTargets and therapy, 2011).

What was measured:
Assay type in all cases: cell-based, human
[1] = tested on: TIB-202 cell line; test: cells
[2] = tested on: SEM cell line; test: cells
[3] = tested on: B1 cell line; test: cells
[4] = tested on: MLL-rearranged leukemia cell lines (SEM, B1, KOPN8, MOLT-3, TIB-202); test: In-vitro cytotoxicity across the panel of leukemia cell lines; conditions: Homo sapiens, for four of five cell lines
[5] = tested on: KOPN8 cell line; test: cells
[6] = tested on: MOLT-3 cell line; test: cells

Molecule | IC50 ([1]; Homo sapiens, 96 h) | IC50 ([2]; Homo sapiens, 96 h) | IC50 ([3]; Homo sapiens, 96 h) | IC50 [4] | IC50 ([5]; Homo sapiens, KOPN-8, 96 h) | IC50 ([6]; Homo sapiens, MOLT-3, 96 h) | IC50 ([1]; Table S1, TIB-202, 96 hours) | IC50 ([2]; Table S1, SEM, 96 hours) | IC50 ([3]; Table S1, B1, 96 hours) | IC50 ([5]; Table S1, KOPN8, 96 hours) | IC50 ([6]; Table S1, MOLT-3, 96 hours)
Nc1nc(Cl)nc2c1ncn2[C@@H]1O[C@H](CO)[C@@H](O)[C@@H]1F [Clofarabine] | < 0.01 µM | 0.0258 µM | < 0.01 µM | < 0.1 µM | 0.0087 µM | > 10 µM |  |  |  |  | 
CCN(CC)CCNC(=O)c1c(C)[nH]c(/C=C2\C(=O)Nc3ccc(F)cc32)c1C [Sunitinib] | 3.29 µM | 0.135 µM | 5.36 µM |  | 3.3 µM | > 10 µM |  |  |  |  | 
C[C@]12CC[C@@H]3c4ccc(O)cc4C[C@@H](CCCCCCCCC[S+]([O-])CCCC(F)(F)C(F)(F)F)[C@H]3[C@@H]1CC[C@@H]2O (some centres unmarked) [Fulvestrant] | > 10 µM | > 10 µM | > 10 µM |  | 7.64 µM | > 10 µM |  |  |  |  | 
Nc1ncn([C@@H]2O[C@H](CO)[C@@H](O)[C@H]2O)c(=O)n1 [Azacitidine] | 5.2 µM | 1.3 µM | 5.07 µM |  | 0.836 µM | 6.21 µM |  |  |  |  | 
CS(=O)(=O)CCNCc1ccc(-c2ccc3ncnc(Nc4ccc(OCc5cccc(F)c5)c(Cl)c4)c3c2)o1 [Lapatinib] | 7.42 µM | 4.73 µM | 5.7 µM |  | 5.2 µM | > 10 µM |  |  |  |  | 
C=C1C[C@@H]2[C@H](CC[C@]3(C)C(=O)CC[C@@H]23)[C@@]2(C)C=CC(=O)C=C12 [Exemestane] | > 10 µM | 2.08 µM | > 10 µM |  | 8.89 µM | > 10 µM |  |  |  |  | 
CNC(=O)c1cc(Oc2ccc(NC(=O)Nc3ccc(Cl)c(C(F)(F)F)c3)cc2)ccn1 [Sorafenib] | 5.95 µM | 1.54 µM | 5.66 µM |  | 3.86 µM | 9.63 µM |  |  |  |  | 
COc1cccc2c1C(=O)c1c(O)c3c(c(O)c1C2=O)C[C@@](O)(C(=O)CO)C[C@@H]3O[C@H]1C[C@H](N)[C@H](O)[C@H](C)O1 [Doxorubicin] | 0.0585 µM | < 0.01 µM | 0.12 µM |  | < 0.01 µM | 7.84 µM |  |  |  |  | 
CO[C@H]1C[C@@H]2CC[C@@H](C)[C@@](O)(O2)C(=O)C(=O)N2CCCC[C@H]2C(=O)O[C@H]([C@H](C)C[C@@H]2CC[C@@H](OCCO)[C@H](OC)C2)CC(=O)[C@H](C)/C=C(\C)[C@@H](O)[C@@H](OC)C(=O)[C@H](C)C[C@H](C)/C=C/C=C/C=C/1C [Everolimus] | < 0.01 µM | < 0.01 µM | 0.834 µM |  | < 0.01 µM | > 10 µM |  |  |  |  | 
Bleomycin |  |  |  |  |  |  | 1.07 µM | < 0.01 µM | 2.92 µM | 0.108 µM | 8.42 µM
Nc1cccc2c1CN(C1CCC(=O)NC1=O)C2=O (centres unmarked) [Lenalidomide] | > 10 µM | > 10 µM | > 10 µM |  | > 10 µM | 10 µM |  |  |  |  | 
C[C@]12CC[C@@H]3c4ccc(OC(=O)N(CCCl)CCCl)cc4CC[C@H]3[C@@H]1CC[C@@H]2O [Estramustine] | > 10 µM | > 10 µM | > 10 µM |  | > 10 µM | > 10 µM |  |  |  |  | 
CCCCCOC(=O)Nc1nc(=O)n([C@@H]2O[C@H](C)[C@@H](O)[C@H]2O)cc1F [Capecitabine] | > 10 µM | > 10 µM | > 10 µM |  | > 10 µM | > 10 µM |  |  |  |  | 
N#Cc1ccc(C(c2ccc(C#N)cc2)n2cncn2)cc1 [Letrozole] | > 10 µM | > 10 µM | > 10 µM |  | > 10 µM | > 10 µM |  |  |  |  | 
NCC(=O)CCC(=O)O [Aminolevulinic acid] | > 10 µM | > 10 µM | > 10 µM |  | > 10 µM | > 10 µM |  |  |  |  | 
CC(C)C[C@H](NC(=O)[C@H](Cc1ccccc1)NC(=O)c1cnccn1)B(O)O [Bortezomib] | 0.00571 µM | < 0.01 µM | 0.00397 µM |  | < 0.01 µM | > 10 µM |  |  |  |  | 
O=c1[nH]cc(F)c(=O)[nH]1 [Fluorouracil] | > 5 µM | > 10 µM | > 10 µM |  | > 5 µM | 7.11 µM |  |  |  |  | 
O=C1CCC(N2C(=O)c3ccccc3C2=O)C(=O)N1 (centres unmarked) [Thalidomide] | > 5 µM | > 10 µM | > 10 µM |  | > 5 µM | > 10 µM |  |  |  |  | 
Cn1nnc2c(C(N)=O)ncn2c1=O [Temozolomide] | > 5 µM | 9.12 µM | > 10 µM |  | > 5 µM | > 10 µM |  |  |  |  | 
CCc1c2c(nc3ccc(OC(=O)N4CCC(N5CCCCC5)CC4)cc13)-c1cc3c(c(=O)n1C2)COC(=O)[C@]3(O)CC [Irinotecan] | 2.53 µM | 3.4 µM | 2.29 µM |  | 1.69 µM | 3.92 µM |  |  |  |  | 
